Entries after “also recorded” stand apart in the source; their conditions may differ.
How the values were obtained:
Molt 4/C8 cells = assay: Cytotoxicity, Molt 4/C8 human T-lymphocytes; details: for TIL1210 (Molt 4/C8 cells): IC50 T-lymphocytes (Molt 4/C8)/IC50 L1210; for TIP388 (Molt 4/C8 cells): IC50 T-lymphocytes (Molt 4/C8)/IC50 P388; for IC50: read-out: Molt 4/C8 cells IC50
L1210 cells = assay: Cytotoxicity, murine L1210 leukemic cells; assay type: cell-based; details: Mus musculus, mean
P388 cells = assay: Cytotoxicity, murine P388 leukemic cells (P388 D1); details: read-out: P388 cells IC50
CEM cells = assay: Cytotoxicity, CEM human T-lymphocytes; details: for IC50: Homo sapiens, CCRF-CEM, read-out: CEM cells IC50; for TIL1210 (CEM cells): IC50 T-lymphocytes (CEM)/IC50 L1210; for TIP388 (CEM cells): IC50 T-lymphocytes (CEM)/IC50 P388
human WiDr colon cancer = details: hydrobromide salt; human WiDr colon cancer in vitro; cited from earlier work
human Jurkat T cells [1] = assay: Growth inhibition of Jurkat T cells, trypan blue exclusion test; assay type: cell-based; details: read-out: growth of Jurkat T cells inhibited by 50% (IC50), 48 hours, 37° C., trypan blue
Method: All cell cultures used were maintained in RPMI 1640 medium, pH 7.4 supplanted with 10% fetal bovine serum and 50 μg/ml of gentamycin in 25 ml culture flasks at 37° C. in a humidified gas mixture of 5% carbon dioxide balanced with air and were passaged three times a week.
(§1) Cell viability was determined by the trypan blue exclusion test according to a literature procedure (Duke and Cohen, 1992). […] A flask containing ~10^6 cells/ml and 8 or […] of DMSO was used as the control. […] After 48 hours, cells were counted using a haemocytometer. The percentage of growth inhibition was calculated as follows: (C-T/C)×100 where C is the mean cell number in the control and T is the mean cell number in each treatment. […] All experiments were performed in triplicate.

COLO 205 = COLO 205 human colon tumor xenograft in athymic mice; assay type: in vivo
Method: (§2) The compounds were examined by the Developmental Therapeutics Program, National Cancer Institute, U.S.A. The murine P388 lymphocytic leukemia assay was conducted by a reported known method and the maximum ILS figures for 9d and 10a were 5 and 20% respectively using doses of 54 and 6.7 mg/kg respectively. An increase of 20% or more in the life spans is considered to be statistically significant. A reference drug 5-fluorouracil has an ILS of >35 using a dose of 20 mg/kg when given intraperitoneally for five days. Passage of human tumors in athymic mice was undertaken by a known method. No definitions of activity are available but as a general rule compounds causing a 60% reduction in tumor weights in one of these screens would be evaluated further.

NCI-H522 = NCI-H522 human non-small cell lung tumor xenograft in athymic mice; assay type: in vivo; details: 80 mg/kg
Method: as §2

SW-620 = SW-620 human colon tumor xenograft in athymic mice; assay type: in vivo; details: 80 mg/kg
Method: as §2

human tumors = assay: Cytotoxicity, human tumor cell line panel (approximately 55 lines)
human Jurkat T cells [2] = assay: Apoptosis, fluorescence microscopy with acridine orange and ethidium bromide; details: for percentage of apoptotic cells: 17 hours, control 4.4%
human Jurkat T cells [3] = assay: DNA fragmentation by agarose gel electrophoresis; assay type: cell-based; details: Compound 9d 6 and 10 μM; melphalan 10 μM
[4] = tested on: P388 lymphocytic leukemia; assay: Murine P388 lymphocytic leukemia in vivo screen
Method: In order to evaluate whether these promising results could be translated into in vivo activity, two representative compounds 9d and 10a were chosen. […] These two compounds were examined in the murine P388 screen and against certain human tumors in athymic mice.
as §2

[5] = tested on: Jurkat T, LV-50, H-9 and Molt-3 cells; assay: Cell viability of Jurkat T, LV-50, H-9 and Molt-3 cells; assay type: cell-based; details: 10 μM, 24 hour
Method: FIG. 5 is a graph showing percent viability of Jurkat T, LV-50, H-9 and Molt 3 cells after exposure to 10 μM of compound 9d for a 24 hour period with error bars representing mean±standard deviation in three separate experiments;
as §1

LOX IMVI = LOX IMVI human melanoma xenograft in athymic mice; assay type: in vivo, human tumor in athymic mice; details: 80 mg/kg
Method: as §2

CCN(CC)CC(C)(C)C(=O)/C=C/c1ccc(Cl)cc1 [Compound 7]
TIL1210 (Molt 4/C8 cells) (Molt 4/C8 cells): 1.13
TIP388 (Molt 4/C8 cells) (Molt 4/C8 cells): 3.29
TIP388 and TIL1210 compared with compound 1b (Molt 4/C8 cells; human T-lymphocytes): inferior TIP388 and TIL1210 values than compound 1b
IC50 (Molt 4/C8 cells): 7.24 µM
IC50 (L1210 cells): 6.39 µM
IC50 (P388 cells): 2.2 µM
IC50 (CEM cells): 1.94 µM
TIL1210 (CEM cells) (CEM cells): 0.30
TIP388 (CEM cells) (CEM cells): 0.88
activity relative to 5-fluorouracil (human WiDr colon cancer): 1.3 times

CCN1CCC(O)(/C=C/c2ccc(C)cc2)C(C(=O)/C=C/c2ccc(C)cc2)C1 (stereo not shown) [Compound 9d]
cytotoxicity to murine leukemic and human tumor cells vs T-lymphocytes (Molt 4/C8 cells): greater cytotoxicity to murine leukemic cells and human tumor cell lines than to T-lymphocytes
TIL1210 (Molt 4/C8 cells) (Molt 4/C8 cells): 4.44
TIP388 (Molt 4/C8 cells) (Molt 4/C8 cells): 12.85
TIht (Molt 4/C8 cells) (Molt 4/C8 cells; IC50 T-lymphocytes (Molt 4/C8)/IC50 human tumors): 5.39
IC50 (Molt 4/C8 cells): 27 µM
IC50 (human Jurkat T cells [1]): 3.46 µM
IC50 (L1210 cells): 6.08 µM
% ILS (COLO 205; COLO 205, 200 mg/kg, increase in median time to reach a certain size): 28%
percent reduction in median tumor weight (COLO 205; COLO 205, 200 mg/kg, percentage reduction of median tumor weight): 57%
reduction in the weight of the human COLO 205 colon tumor (COLO 205; athymic mice, Example 5): 60%
% ILS (NCI-H522): -2%
% T/C (NCI-H522): 23%
IC50 (P388 cells): 2.1 µM
% ILS (SW-620): 9%
% T/C (SW-620): 32%
selective/preferential cytotoxicity towards colon cancer cells (human tumors; human tumor screen): preferential cytotoxicity towards human colon cells; also recorded: preferential cytotoxicity to colon; also recorded: selective toxicity to human colon cancer cells
IC50 (human tumors; read-out: human tumors IC50, mean graph midpoint, approximately 55 cell lines, hydrobromide salts used for 4a, 11a-e): 5.01 µM
apoptotic index / apoptosis induction (in words) (human Jurkat T cells [2]): the apoptotic index increased almost two fold; also recorded: greater apoptotic index than melphalan; also recorded: more potent inducer of apoptosis; also recorded: potent apoptotic agent
time after which apoptotic effects were detectable (human Jurkat T cells [2]): 3 h
morphological features (human Jurkat T cells [2]; 6 μM, 17 h): characteristic blebbing and apoptotic bodies
percentage of apoptotic cells (human Jurkat T cells [2]; 6 μM): 22%
percentage of apoptotic cells (human Jurkat T cells [2]; 10 μM): 43%
death of treated cells (human Jurkat T cells [2]; 48 hours): all the treated cells had died
DNA ladder / DNA fragmentation (human Jurkat T cells [3]): did not show any DNA ladder; also recorded: no DNA fragmentation was detected
maximum ILS, murine P388 ([4]; 54 mg/kg): 5%
activity in the murine P388 screen ([4]; in words): inactive
IC50 (CEM cells): 14 µM
TIL1210 (CEM cells) (CEM cells): 2.31
TIP388 (CEM cells) (CEM cells): 6.69
TIht (CEM cells) (CEM cells; IC50 T-lymphocytes (CEM)/IC50 human tumors): 2.80
sensitivity of cell lines [5]: Jurkat T cells were the most sensitive in its response, although all cell cultures were affected
% ILS (LOX IMVI): 12%
% T/C (LOX IMVI): 35%
